Assay results: PubChem BioAssay (NCI)
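Assay format: 96-well plates, 48-hour exposure. GI50 marks 50% less growth. TGI denotes the concentration required for complete inhibition of growth.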

Columns and labels:
Experiment in all cases: NCI-60 cell line screen, 48 h
786-0 renal = system: 786-0 renal
A498 renal = system: A498 renal
A549 NSCLC = system: A549 NSCLC
ACHN renal = system: ACHN renal
BT-549 breast = system: BT-549 breast
CAKI-1 renal = system: CAKI-1 renal
COLO 205 colon = system: COLO 205 colon
DU-145 prostate = system: DU-145 prostate
EKVX NSCLC = system: EKVX NSCLC
HCC-2998 colon = system: HCC-2998 colon
HCT-116 colon = system: HCT-116 colon
HCT-15 colon = system: HCT-15 colon
HL-60(TB) leukemia = system: HL-60(TB) leukemia
HOP-62 NSCLC = system: HOP-62 NSCLC
HOP-92 NSCLC = system: HOP-92 NSCLC
HS 578T breast = system: HS 578T breast
HT29 colon = system: HT29 colon
IGROV1 ovarian = system: IGROV1 ovarian
K-562 leukemia = system: K-562 leukemia
KM12 colon = system: KM12 colon
LOX IMVI melanoma = system: LOX IMVI melanoma
M14 melanoma = system: M14 melanoma
MALME-3M melanoma = system: MALME-3M melanoma
MCF7 breast = system: MCF7 breast
MDA-MB-231 breast = system: MDA-MB-231 breast
MDA-MB-435 = system: MDA-MB-435
MDA-MB-468 breast = system: MDA-MB-468 breast
MOLT-4 leukemia = system: MOLT-4 leukemia
NCI-H226 lung = system: NCI-H226 lung
NCI-H23 lung = system: NCI-H23 lung
NCI-H460 lung = system: NCI-H460 lung
NCI-H522 lung = system: NCI-H522 lung
OVCAR-3 ovarian = system: OVCAR-3 ovarian
OVCAR-4 ovarian = system: OVCAR-4 ovarian
OVCAR-5 ovarian = system: OVCAR-5 ovarian
OVCAR-8 ovarian = system: OVCAR-8 ovarian
PC-3 prostate = system: PC-3 prostate
RPMI-8226 leukemia = system: RPMI-8226 leukemia
RXF 393 renal = system: RXF 393 renal
SF-268 CNS = system: SF-268 CNS
SF-295 CNS = system: SF-295 CNS
SF-539 CNS = system: SF-539 CNS
SK-MEL-2 melanoma = system: SK-MEL-2 melanoma
SK-MEL-28 melanoma = system: SK-MEL-28 melanoma
SK-MEL-5 melanoma = system: SK-MEL-5 melanoma
SK-OV-3 ovarian = system: SK-OV-3 ovarian
SN12C renal = system: SN12C renal
SNB-19 CNS = system: SNB-19 CNS
SNB-75 CNS = system: SNB-75 CNS
SR leukemia = system: SR leukemia
SW-620 colon = system: SW-620 colon
T-47D breast = system: T-47D breast
TK-10 renal = system: TK-10 renal
U251 CNS = system: U251 CNS
UACC-257 melanoma = system: UACC-257 melanoma
UACC-62 melanoma = system: UACC-62 melanoma
UO-31 renal = system: UO-31 renal

## N#CC1=C(c2ccco2)Nc2c(c(-c3ccccc3)nn2-c2ccccc2)C12C(=O)Nc1ccc(Br)cc12 (centres undefined)
786-0 renal
  GI50: 21.3 µM
  TGI: 51.8 µM
A498 renal
  GI50: 16.8 µM
  TGI: 32.1 µM
A549 NSCLC
  GI50: 17.4 µM
  TGI: 33 µM
ACHN renal
  GI50: 18.7 µM
  TGI: 35.7 µM
BT-549 breast
  GI50: 14.6 µM
  TGI: 29.7 µM
CAKI-1 renal
  GI50: 19.3 µM
  TGI: 43.2 µM
COLO 205 colon
  GI50: 25.4 µM
  TGI: 69.1 µM
DU-145 prostate
  GI50: 20.5 µM
  TGI: 40.2 µM
EKVX NSCLC
  GI50: 20.9 µM
  TGI: 54.6 µM
HCC-2998 colon
  GI50: 36.5 µM
  TGI: > 100 µM
HCT-116 colon
  GI50: 18.6 µM
  TGI: 36.3 µM
HCT-15 colon
  GI50: 18.1 µM
  TGI: 36.9 µM
HL-60(TB) leukemia
  GI50: 53.2 µM
  TGI: > 100 µM
HOP-62 NSCLC
  GI50: 18.4 µM
  TGI: 37.8 µM
HOP-92 NSCLC
  GI50: 16.8 µM
  TGI: 33.2 µM
HS 578T breast
  GI50: 19.3 µM
  TGI: 47.8 µM
HT29 colon
  GI50: 18.3 µM
  TGI: 35.2 µM
IGROV1 ovarian
  GI50: 18.5 µM
  TGI: 34.6 µM
K-562 leukemia
  GI50: 38 µM
  TGI: > 100 µM
KM12 colon
  GI50: 33.2 µM
  TGI: > 100 µM
LOX IMVI melanoma
  GI50: 18.1 µM
  TGI: 34.8 µM
M14 melanoma
  GI50: 18.5 µM
  TGI: 36.8 µM
MALME-3M melanoma
  GI50: 16.1 µM
  TGI: 29.9 µM
MCF7 breast
  GI50: 17.3 µM
  TGI: 33.1 µM
MDA-MB-231 breast
  GI50: 18.3 µM
  TGI: 34.2 µM
MDA-MB-435
  GI50: 24.2 µM
  TGI: 61.5 µM
MDA-MB-468 breast
  GI50: 26 µM
  TGI: 69.3 µM
MOLT-4 leukemia
  GI50: 35.2 µM
  TGI: > 100 µM
NCI-H226 lung
  GI50: 21.1 µM
  TGI: 44.4 µM
NCI-H23 lung
  GI50: 21.5 µM
  TGI: 47.7 µM
NCI-H460 lung
  GI50: 17.9 µM
  TGI: 33.4 µM
NCI-H522 lung
  GI50: 20.4 µM
  TGI: 48.4 µM
OVCAR-3 ovarian
  GI50: 28.9 µM
  TGI: 96.4 µM
OVCAR-4 ovarian
  GI50: 19.2 µM
  TGI: 40.7 µM
OVCAR-5 ovarian
  GI50: 19.1 µM
  TGI: 44.2 µM
OVCAR-8 ovarian
  GI50: 18 µM
  TGI: 33.1 µM
PC-3 prostate
  GI50: 16.2 µM
  TGI: 31.6 µM
RPMI-8226 leukemia
  GI50: 35.9 µM
  TGI: > 100 µM
RXF 393 renal
  GI50: 17.3 µM
  TGI: 34.5 µM
SF-268 CNS
  GI50: 26.8 µM
  TGI: 74 µM
SF-295 CNS
  GI50: 19.6 µM
  TGI: 50 µM
SF-539 CNS
  GI50: 18.1 µM
  TGI: 35.1 µM
SK-MEL-2 melanoma
  GI50: 18.1 µM
  TGI: 36.7 µM
SK-MEL-28 melanoma
  GI50: 17.9 µM
  TGI: 33.6 µM
SK-MEL-5 melanoma
  GI50: 18 µM
  TGI: 32.6 µM
SK-OV-3 ovarian
  GI50: 17.3 µM
  TGI: 34.1 µM
SN12C renal
  GI50: 18.3 µM
  TGI: 35.6 µM
SNB-19 CNS
  GI50: 18.6 µM
  TGI: 42.2 µM
SNB-75 CNS
  GI50: 16 µM
  TGI: 38 µM
SR leukemia
  GI50: 48.9 µM
  TGI: > 100 µM
SW-620 colon
  GI50: 30 µM
  TGI: 97.6 µM
T-47D breast
  GI50: 30.4 µM
  TGI: > 100 µM
TK-10 renal
  GI50: 17 µM
  TGI: 33.5 µM
U251 CNS
  GI50: 18 µM
  TGI: 33.4 µM
UACC-257 melanoma
  GI50: 20.5 µM
  TGI: 50.6 µM
UACC-62 melanoma
  GI50: 17.2 µM
  TGI: 32.1 µM
UO-31 renal
  GI50: 28.1 µM
  TGI: > 100 µM

## C=C1CC[C@@H]2[C@]3(C)COC(c4cn[nH]c4-c4cccc(Br)c4)O[C@@H]3CC[C@@]2(C)[C@@H]1C/C=C1/C(=O)OCC1O (some centres undefined)
786-0 renal
  GI50: 1.92 µM
  TGI: 3.6 µM
A498 renal
  GI50: 20.8 µM
  TGI: 35.4 µM
A549 NSCLC
  GI50: 3.37 µM
  TGI: 14.1 µM
ACHN renal
  GI50: 1.95 µM
  TGI: 3.97 µM
BT-549 breast
  GI50: 1.44 µM
  TGI: 3 µM
CAKI-1 renal
  GI50: 2.77 µM
  TGI: 7.05 µM
COLO 205 colon
  GI50: 2.18 µM
  TGI: 4.48 µM
DU-145 prostate
  GI50: 3.08 µM
  TGI: 9.43 µM
EKVX NSCLC
  GI50: 2.15 µM
  TGI: 4.81 µM
HCC-2998 colon
  GI50: 1.87 µM
  TGI: 3.53 µM
HCT-15 colon
  GI50: 1.66 µM
  TGI: 3.78 µM
HL-60(TB) leukemia
  GI50: 1.87 µM
  TGI: 7.43 µM
HOP-62 NSCLC
  GI50: 3.78 µM
  TGI: 13.7 µM
HOP-92 NSCLC
  GI50: 2.21 µM
  TGI: 5.1 µM
HS 578T breast
  GI50: 5.27 µM
  TGI: 59.4 µM
HT29 colon
  GI50: 2.1 µM
  TGI: 4.82 µM
IGROV1 ovarian
  GI50: 2.72 µM
  TGI: 6.46 µM
K-562 leukemia
  GI50: 1.93 µM
  TGI: 8.65 µM
KM12 colon
  GI50: 2.44 µM
  TGI: 6.13 µM
LOX IMVI melanoma
  GI50: 1.39 µM
  TGI: 2.7 µM
M14 melanoma
  GI50: 2.52 µM
  TGI: 7.22 µM
MALME-3M melanoma
  GI50: 1.93 µM
  TGI: 4.25 µM
MCF7 breast
  GI50: 1.28 µM
  TGI: 3.95 µM
MDA-MB-435
  GI50: 3.4 µM
  TGI: 14.1 µM
MDA-MB-468 breast
  GI50: 1.61 µM
  TGI: 3.22 µM
MOLT-4 leukemia
  GI50: 2.29 µM
  TGI: 18.7 µM
NCI-H226 lung
  GI50: 1.62 µM
  TGI: 3.09 µM
NCI-H23 lung
  GI50: 1.84 µM
  TGI: 3.62 µM
NCI-H460 lung
  GI50: 2.43 µM
  TGI: 6.29 µM
NCI-H522 lung
  GI50: 1.9 µM
  TGI: 3.77 µM
OVCAR-3 ovarian
  GI50: 2.02 µM
  TGI: 3.99 µM
OVCAR-4 ovarian
  GI50: 4.47 µM
  TGI: 30.1 µM
OVCAR-5 ovarian
  GI50: 2.14 µM
  TGI: 4.72 µM
OVCAR-8 ovarian
  GI50: 1.88 µM
  TGI: 6.17 µM
PC-3 prostate
  GI50: 3.07 µM
  TGI: 11.6 µM
RXF 393 renal
  GI50: 1.81 µM
  TGI: 3.26 µM
SF-268 CNS
  GI50: 12.6 µM
  TGI: 40.3 µM
SF-295 CNS
  GI50: 1.83 µM
  TGI: 3.99 µM
SF-539 CNS
  GI50: 1.74 µM
  TGI: 3.22 µM
SK-MEL-2 melanoma
  GI50: 2.55 µM
  TGI: 5.59 µM
SK-MEL-28 melanoma
  GI50: 1.93 µM
  TGI: 3.83 µM
SK-MEL-5 melanoma
  GI50: 1.75 µM
  TGI: 3.19 µM
SK-OV-3 ovarian
  GI50: 5.8 µM
  TGI: 21.4 µM
SN12C renal
  GI50: 2.03 µM
  TGI: 4.78 µM
SNB-75 CNS
  GI50: 2.45 µM
  TGI: 7.86 µM
SW-620 colon
  GI50: 2.22 µM
  TGI: 5.05 µM
TK-10 renal
  GI50: 5.1 µM
  TGI: 18.9 µM
U251 CNS
  GI50: 1.81 µM
  TGI: 3.36 µM
UACC-257 melanoma
  GI50: 2.85 µM
  TGI: 9.7 µM
UACC-62 melanoma
  GI50: 1.55 µM
  TGI: 3.15 µM
